Assay results from patent publication US9035022B2, “Cyclic CRF antagonist peptides” (Salk Institute for Biological Studies, priority 2010, dated 2015).

System: adrenalectomized (ADX) rats
Assay: In vivo assay of ACTH secretion in adrenalectomized (ADX) rats
Set-up: species or system rat
Experimental: The in vivo assays which are employed to test these CRF antagonists use adrenalectomized (ADX) rats. […] Their diet is supplemented with 0.9% NaCl in the drinking water and with oranges. Two days prior to the experiments, the animals are equipped with jugular cannulae, as described in C. […] On the morning of the experiments, the i.v. cannulae are connected to a line filled with heparinized saline, and the rats are placed in individual buckets and left undisturbed for 2 hours. For the experiment, a first blood sample of 0.3 mL is withdrawn, the test solution is injected (in an 0.2-0.5 mL volume), and subsequent blood samples are obtained at about 15, 45, 90 and 120 minutes. The blood samples are centrifuged, and the separated plasma are kept frozen (−20° C.) until assayed for ACTH values. Plasma ACTH levels are measured as described in C.

Row | Substance | inhibition of secretion of ACTH and corticosterone (general procedure of Example I) | inhibition of secretion of ACTH and β-END-LI (administration of the peptide)
1 | [Aib^19,24,32, Orn^25]-Astressin B [V] | inhibits the secretion of ACTH and corticosterone | –
2 | [Tyr-Asp^1, Aib^19,24,32]-Astressin B [IV] | – | inhibits the secretion of ACTH and β-END-LI
